Test results published in patent publication EP3158990A1 (Glano Tech Ltd, priority 2015, dated 2017).

Legend:
[1] = system: smooth muscle of the corpora cavernosa of rats; test: Relaxation/contraction of rat corpus cavernosum tissue samples (force displacement transducer); format: cell-based, Wistar-type rats; conditions: for relaxation of the tissue of the corpora cavernosa: tissue constricted with norepinephrine, scalar solutions 10^-5 M to 10^-3 M
Excerpt: In particular, this model is used for planning experiments aimed at checking the vasodilatory action of NO on vascular smooth muscle cells, since the methodology presented by the authors allows samples of corpus cavernosum tissue to be obtained from rats, on which studies of response to various exogenous molecules can be conducted, to detect their relaxation/contraction effects on smooth muscle cells.
The work we selected and the experimental model on which we based our observations can easily be traced in the following work: G. Italiano, A. Calabrò and F. Pagano of the Urology Institute of Padua University, published in Pharmacology Therapeutics (Vol 30 no 4, 1994 pp. 325-334).
We used 20 adult Wistar-type rats weighing between 175 and 200 g; after having sacrificed the rats we obtained corpus cavernosum tissues as described by the methods and placed these in a Krebs solution (in mM: 118 NaCl, 4,7 KCI, 1,2 KH2PO4, 1,2 MgSO4, 1,5 CaCl2, 25 NaHCO3, 11 glucose).
A single sample was taken from each rat.
The excised tissues were then put in 10 mL Krebs solution and held in place by two metal arms to allow assessment of any changes in the forces observed and assessed by the Grass FT03 model (using a force displacement transducer apparatus to assess the muscle tension of tissues, calibrated in mN). The saline solution containing the tissues (Krebs solution) was kept at pH 7.4 ±0.1 and at 37°C, with oxygenation using a mixture of 95% oxygen and 5% carbon dioxide.

[2] = Analysis of the mixed solution (infrared nitrite peak, visible UV spectrum); format: physicochemical
[3] = system: rat model with type 1 diabetes induced by streptozotocin; test: In-vivo test of sexual function in diabetic rat models; set-up: species or system male Wistar rats
Method: Next we tested the possible beneficial effects of SNO-pantetheine on sexual function in a rat model with type 1 diabetes induced by streptozotocin, which is typically accompanied by deficit of sexual activity.
In short, male Wistar rats were assigned to a cage (45 × 50 × 35 cm) covered in glass and lit with red light. Training took place every day after 5 pm for about 30 min, and after 10 minutes of acclimatisation a female rat in an oestrogenic phase was introduced into the cage. We then observed the sexual behaviour of diabetic rats vs. the relevant controls by measuring standard parameters (Burnett et al., 1995).

## NC[C@H](O)c1ccc(O)c(O)c1 [norepinephrine, reference compound]
[1]; scalar solutions 10^-8 M to 10^-3 M, Krebs solution pH 7.4, 37°C
  constriction: about 1.5 mN

## CC(C)(CO)[C@@H](O)C(=O)NCCC(=O)NCCSN=O [SNO-pantetheine, S-nitrosothiol of pantetheine]
[2]; at room temperature, after mixing of phases A and B
  nitrosothiol remains sufficiently stable: more than 1 hour
[1]
  relaxation of the tissue of the corpora cavernosa: the effect of the norepinephrine was cancelled out
[3]; Day 0, topical application
  EL (Ejaculation latency): 423.2 ± 12.5 s
  IF (Introduction frequency): 11.2 ± 0.9 number
  IL (Introduction latency): 52.3 ± 3.9 s
  MF (Mating frequency): 12.0 ± 1.7 number
  ML (Mating latency): 42.5 ± 2.9 s
  PEI (Post-ejaculatory interval): 343.3 ± 10.9 s
[3]; Day 30, topical application
  EL (Ejaculation latency): 375.8 ± 10.8 s
  IF (Introduction frequency): 14.5 ± 0.8 number
  IL (Introduction latency): 44.7 ± 4.2 s
  MF (Mating frequency): 11.2 ± 0.3 number
  ML (Mating latency): 34.3 ± 2.5 s
  PEI (Post-ejaculatory interval): 386.2 ± 14.3 s

## O=C(O)CCCCC1CCSS1 (stereo not drawn) [alpha lipoic acid]
[2]; alpha lipoic acid used as SH group donor instead of pantetheine
  results of the reaction compared with pantetheine (nitrite consumption, S-nitroso compound formation): comparable results

## S-nitrosothiol of alpha lipoic acid
[1]
  relaxation of the tissue of the corpora cavernosa: very similar to that of the S-nitrosothiol of pantetheine
